Columns and labels:
Format in all cases: in vivo, Sorghum bicolor
[1] = system: grain sorghum genotype BV10-11924 (mutant ADV-HT2); experiment: Field phytotoxicity trial, aerial biomass as % of untreated control, mutant ADV-HT2 sorghum; details: for Biomass % Control: field
Description: (§1) To determine the spectrum of tolerance to different HPPD herbicide site of action (SOA) active ingredients (AI) in a sorghum HPPD tolerant inbred BV10-11924 (ADV-HT2) following methodology was used.
(§2) Two grain sorghum genotypes were evaluated under field conditions with herbicide pre-emergency (PRE) and post-emergency (POE) treatments of 6 active ingredients of HPPD SOA herbicide families for sorghum crop phytotoxicity trials.
(§3) The experiment design was a split-plot design with 2 replicates where: Herbicide treatment was defined as Main plot, and Genotype as split plot. Plot size were 10 square meters each, this is 4 row/plot, 5 meters length and 0.52 meters between rows.
(§4) Both genotypes (Table 1) were sown in the Advanta R&D Station in Venado Tuerto, Argentina using an experimental planter. Wild type BV94-4045 (line used for mutagenesis in example 1) is a maintainer elite inbred line Advanta's proprietary.
(§5) All herbicide treatments (Table 2) were applied same day of sowing date for herbicide PRE treatments, and 15 days after sowing for POE treatments using an experimental sprayer in optimal weather conditions. The herbicides rates were defined as: 1×, 2× and 4×. Along with the herbicides, there were applied specific surfactant when they were recommended by the supplier for each herbicide. In all cases, 1× rate was defined based on the recommended dose in herbicide label. […]
(§6) For Aerial Biomass (Biomass) measurements, all plants from two central rows each plot were harvested by cutting them at ground level and weighted before and after drying at 60° C. for 48 h in order to determine the shoot dry mass reduction of each treatment. All data were standardized using the Aerial Biomass average as the % of Control plots. For the calculation as the percentage of its respective untreated control was used the following function:
(§7) Biomass % Control=(Biomassgh/Biomassg Control)*100
(§8) where “Biomass % Control” is the Aerial Biomass expressed as percent of each genotype in the Control plot without any herbicide application (Table 3); “Biomassgh” is the Aerial Biomass is the mean for each genotype*herbicide treatment combination and “Biomassg Control” is the Aerial Biomass mean for each genotype in the treatment CONTROL (untreated).

[2] = system: grain sorghum genotype BV94-4045 (susceptible wild type); experiment: Field phytotoxicity trial, aerial biomass as % of untreated control, wild type sorghum; details: BV94-4045 wild type; for Biomass % Control: field; for phytotoxicity / biomass accumulation (in words): POE, 20 days after herbicide application, 4×
Description: as §1, §2, §3, §4, §5, §6, §7, §8

[3] = system: M3 sorghum plants of furrow VT09-8800 (BV94-4045EMS1-256-2, ADV-HT2); experiment: Herbicide spray selection of EMS-mutagenised M3 sorghum progeny; details: sprayed with 33.6 ml active ingredient/ha; six M3 plants of furrow VT09-8800
Description: In order to obtain herbicide-tolerant plants, endogamic sorghum (Sorghum bicolor) line BV94-4045 (Advanta proprietary elite line) seeds were treated with an aqueous solution of ethyl methanesulfonate (EMS). Treated seeds were planted and self-pollinated for advancing generation. Eight hundred nighty five M1 plants were selected, and two seeds of each plant were planted in a nursery, thereby obtaining a total of 1790 M2 plants. Pollen from both plants of each pair were collected, and the bulk was used for pollinating both plants of the pair. A bulk of M3 seeds from each pair was obtained from the 895 pollinated M2 pairs of plants. A total of 895 furrows were planted with the M3 progeny. Fifty plants from each M3 furrow were sprayed with 33.6 ml active ingredient /ha of topramezone. […] The genealogy of the resistant plants from the furrows was identified and they were designated BV94-4045EMS1-256-2 (hereinafter referred to as ADV-HT2). Herbicide tolerant M7 mutant plants and seeds selected from the original ADV-HT2 mutant, designated as: Material ID=VT10-11924-1-BK and Inbred Code=BV10-11924, were obtained and deposited with the NCIMB collection with Access No. NCIMB 43919 under the terms of the Budapest Treaty,
Thirty-two thousand pre-germinated sorghum seeds from endogamic line BV94-4045 were dipped into an aqueous solution of 0.05% v/v ethyl methanesulfonate (EMS) for 16 hours. […]

[4] = PRE application (day of sowing), 1X = label recommended rate
[5] = PRE, 1× rate, 20 days after the application
[6] = POE application (15 days after sowing), 1X = label recommended rate
[7] = POE, 20 days after herbicide application, rates 1×, 2×, and 4×

Row | Structure (SMILES) | Biomass % Control [1, 4] | Biomass % Control ([1]; PRE application, 2X label rate) | Biomass % Control ([1]; PRE application, 4X label rate) | phytotoxicity / biomass accumulation (in words) [1, 5] | Biomass % Control [2, 4] | Biomass % Control ([2]; PRE application, 2X label rate) | Biomass % Control ([2]; PRE application, 4X label rate) | Biomass % Control [1, 6] | Biomass % Control ([1]; POE application, 2X label rate) | Biomass % Control ([1]; POE application, 4X label rate) | phytotoxicity / biomass accumulation (in words) [1, 7] | Biomass % Control [2, 6] | Biomass % Control ([2]; POE application, 2X label rate) | Biomass % Control ([2]; POE application, 4X label rate) | phytotoxicity / biomass accumulation (in words) ([2]; rates 2×) | phytotoxicity / biomass accumulation (in words) ([2]; rates 1×, 2×) | plant growth and symptoms after treatment with herbicide (in words) [3]
1 | COCCOCc1nc(C(F)(F)F)ccc1C(=O)C1=C(O)C2CCC(C2)C1=O (stereo not drawn) [BYC, BICYCLOPIRONA] | 127% | 46% | 15% | no significative reduction in biomass accumulation | 65% | 10% | 1% | – | – | – | – | – | – | – | – | – | –
2 | CS(=O)(=O)c1cc(C(F)(F)F)ccc1C(=O)c1cnoc1C1CC1 [ISO, ISOXAFLUTOLE] | 84% | 68% | 38% | no significative reduction in biomass accumulation | 63% | 28% | 10% | – | – | – | – | – | – | – | – | – | –
3 | CS(=O)(=O)c1ccc(C(=O)C2C(=O)CCCC2=O)c([N+](=O)[O-])c1 [MES, MESOTRIONE] | – | – | – | – | – | – | – | 146% | 106% | 84% | tolerant without phytotoxicity nor reduction in the biomass accumulation | 108% | 32% | 13% | significant reduction in the biomass accumulation | – | –
4 | CCn1ncc(C(=O)c2ccc(S(C)(=O)=O)c(OCCOC)c2C)c1OC(C)OC(=O)OC (stereo not drawn) [TOL, TOLPYRALATE] | – | – | – | – | – | – | – | 117% | 92% | 127% | tolerant without phytotoxicity nor reduction in the biomass accumulation | 76% | 60% | 64% | – | significant reduction in the biomass accumulation | –
5 | Cc1c(C(=O)c2cnn(C)c2O)ccc(S(C)(=O)=O)c1C1=NOCC1 [TOP, TOPRAMEZONE] | – | – | – | – | – | – | – | 126% | 107% | 117% | tolerant without phytotoxicity nor reduction in the biomass accumulation | 77% | 51% | 39% | – | significant reduction in the biomass accumulation | normal growth and absence of symptoms
